Read-outs that look alike come from different tables or passages of the source. Bridge positions count the residues as written; N and C are the ends. Square brackets hold non-standard residues; d marks the D form. Peptide text beside a SMILES is read from it. Hyp = O=C(O)[C@@H]1C[C@@H](O)CN1; Cit = NC(=O)NCCC[C@H](N)C(=O)O
Legend:
[1] = biological target: T1, hAMY3 receptor (Homo sapiens, UniProt O60896+P30988); assay: cAMP assay for in vitro receptor activation, hAMY3-R; format: cell-based; conditions: for EC50: read-out: hAMY3R EC50
T1 sequence (P30988 25-474): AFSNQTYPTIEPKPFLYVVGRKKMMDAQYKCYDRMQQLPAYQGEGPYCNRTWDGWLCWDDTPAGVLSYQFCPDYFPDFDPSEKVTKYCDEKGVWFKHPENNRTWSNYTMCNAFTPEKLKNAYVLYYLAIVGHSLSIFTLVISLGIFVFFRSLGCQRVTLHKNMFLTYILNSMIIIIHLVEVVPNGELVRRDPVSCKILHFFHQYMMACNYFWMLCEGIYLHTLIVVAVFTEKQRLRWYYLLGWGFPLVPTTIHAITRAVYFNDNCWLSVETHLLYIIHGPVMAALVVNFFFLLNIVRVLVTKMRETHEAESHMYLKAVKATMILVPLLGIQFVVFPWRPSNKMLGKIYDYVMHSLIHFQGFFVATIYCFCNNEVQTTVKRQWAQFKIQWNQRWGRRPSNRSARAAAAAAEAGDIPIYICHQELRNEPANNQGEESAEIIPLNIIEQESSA
T1 sequence (O60896 24-148 partner): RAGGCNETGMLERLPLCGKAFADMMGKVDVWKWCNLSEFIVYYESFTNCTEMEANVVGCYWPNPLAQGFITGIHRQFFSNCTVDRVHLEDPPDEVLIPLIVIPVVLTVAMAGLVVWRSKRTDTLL
How it was run: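 Monoclonal cell line stably overexpressing human AMY3 receptor, 2000 cells/well in DPBS with 0.05% casein and 0.5 mM IBMX. Stimulated 30 min at room temperature with graded compound doses, human amylin as positive control. cAMP accumulation read by TR-FRET after one hour.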

[2] = Physical stability of peptide analogues (Thioflavin T fibrillation); format: physicochemical; conditions: maximum ThT signal normalized between hAMY maximum and buffer background; 40° C., shaking, four days; pH 7 per table title
How it was run: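 ThT fluorescence (450 nm excitation, 480 nm emission; 4 μM dye) was read every 10 min over four days at 40° C under 700 rpm shaking stress, after 1 h in pH 4 acetate or pH 7 phosphate (50 mM). Peak smoothed signal expressed as percent, scaled between buffer background and hAMY maximum.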

[3] = biological target: hAM1 receptor (Homo sapiens, UniProt O60895+Q16602); assay: cAMP assay for in vitro receptor activation, hAM1-R; format: cell-based; conditions: for EC50: read-out: hAM1R EC50
How it was run: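 cAMP accumulation was measured in a monoclonal cell line stably overexpressing the hAM1 receptor. Frozen aliquots were thawed and plated at 8000 cells/well in DPBS containing 0.05% casein and 0.5 mM IBMX.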

Chain of hAM1 receptor (Q16602 23-461): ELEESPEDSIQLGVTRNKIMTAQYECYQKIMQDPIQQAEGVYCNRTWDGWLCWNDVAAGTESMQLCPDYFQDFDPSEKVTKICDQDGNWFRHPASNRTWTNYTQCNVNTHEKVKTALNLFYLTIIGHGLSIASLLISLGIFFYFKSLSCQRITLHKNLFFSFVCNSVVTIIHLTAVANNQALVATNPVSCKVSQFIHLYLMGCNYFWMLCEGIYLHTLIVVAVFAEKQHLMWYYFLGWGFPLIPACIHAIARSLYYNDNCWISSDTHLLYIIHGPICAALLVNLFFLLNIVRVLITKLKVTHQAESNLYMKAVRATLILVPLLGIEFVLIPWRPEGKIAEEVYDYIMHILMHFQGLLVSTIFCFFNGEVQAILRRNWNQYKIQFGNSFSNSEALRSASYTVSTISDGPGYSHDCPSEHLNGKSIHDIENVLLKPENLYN
Chain of hAM1 receptor (O60895 43-175 partner): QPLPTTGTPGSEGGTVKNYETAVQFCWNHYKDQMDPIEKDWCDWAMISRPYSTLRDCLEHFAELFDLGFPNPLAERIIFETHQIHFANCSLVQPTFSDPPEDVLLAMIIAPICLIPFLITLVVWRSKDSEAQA

SMILES	EC50 ([1]; cAMP assay, hAMY3 receptor) [nM]	Max ThT signal (%) [2] [%]	EC50 ([3]; cAMP assay, hAM1 receptor) [nM]	EC50 ([1]; cAMP accumulation, cells stably overexpressing hAMY3 receptor, 30 min stimulation) [nM]	improvement of potency on AMY3R compared to hAM15-52 ([1]; relative to SEQ ID NO: 1)	EC50 ([3]; cAMP accumulation, cells stably overexpressing hAM1 receptor, 30 min stimulation) [nM]	decrease of potency on AM1R compared to hAM15-52 ([3]; relative to SEQ ID NO: 1)
CC[C@H](C)[C@H](NC(=O)[C@H](CCC(N)=O)NC(=O)[C@H](Cc1c[nH]cn1)NC(=O)[C@H](C)NC(=O)[C@H](CC(C)C)NC(=O)[C@H](Cc1c[nH]c2ccccc12)NC(=O)[C@H](CCC(N)=O)NC(=O)[C@@H](NC(=O)[C@@H](NC(=O)[C@@H]1CSSC[C@H](NC(=O)CN)C(=O)N[C@@H](CCCNC(=N)N)C(=O)N[C@@H]([C@@H](C)O)C(=O)NCC(=O)N[C@@H]([C@@H](C)O)C(=O)N1)[C@@H](C)O)C(C)C)C(=O)N[C@@H](Cc1ccc(O)cc1)C(=O)N[C@@H](CCC(N)=O)C(=O)N[C@@H](Cc1ccccc1)C(=O)N[C@H](C(=O)N[C@@H](CC(=O)O)C(=O)N[C@@H](CCCCN)C(=O)N[C@@H](CC(=O)O)C(=O)N[C@@H](CCCCN)C(=O)N[C@@H](CC(=O)O)C(=O)N[C@@H](CC(N)=O)C(=O)N[C@H](C(=O)N[C@@H](C)C(=O)N1CCC[C@H]1C(=O)N[C@@H](CCCNC(=N)N)C(=O)N[C@@H](CO)C(=O)N[C@@H](CCCCN)C(=O)N[C@H](C(=O)NCC(=O)N1CCC[C@H]1C(=O)N[C@@H](CC(N)=O)C(=O)NCC(=O)N1C[C@H](O)C[C@H]1C(N)=O)C(C)C)C(C)C)[C@@H](C)O [compound 347] (H-GCRTGTCTVQWLAHQIYQFTDKDKDNVAPRSKVGPNG[Hyp]-NH2; disulfide 2-7; N-terminus assumed)	0.068	15.500	> 5000	–	–	–	–
CC[C@H](C)[C@H](NC(=O)[C@H](CCC(N)=O)NC(=O)[C@H](CC(=O)O)NC(=O)[C@H](C)NC(=O)[C@H](CC(C)C)NC(=O)[C@H](CCCNC(N)=O)NC(=O)[C@H](C)NC(=O)[C@@H](NC(=O)[C@@H](NC(=O)[C@@H]1CSSC[C@H](NC(=O)[C@@H](N)CCCCN)C(=O)N[C@@H](CC(N)=O)C(=O)N[C@@H]([C@@H](C)O)C(=O)N[C@@H](CO)C(=O)N[C@@H]([C@@H](C)O)C(=O)N1)[C@@H](C)O)C(C)C)C(=O)N[C@H](C(=O)N[C@@H](CCC(N)=O)C(=O)N[C@@H](Cc1ccccc1)C(=O)N[C@@H](CO)C(=O)N[C@@H](CC(N)=O)C(=O)N[C@@H](CCCCN)C(=O)N[C@@H](CC(=O)O)C(=O)N[C@@H](CCCCN)C(=O)N[C@@H](C)C(=O)N[C@@H](CCC(N)=O)C(=O)N[C@H](C(=O)N[C@@H](CO)C(=O)N1CCC[C@H]1C(=O)N1CCC[C@H]1C(=O)N[C@H](C(=O)N[C@@H](CCC(=O)O)C(=O)N[C@H](C(=O)NCC(=O)N1CCC[C@H]1C(=O)N[C@@H](CC(N)=O)C(=O)N[C@@H](CO)C(=O)N1C[C@H](O)C[C@H]1C(N)=O)C(C)C)[C@@H](C)O)C(C)C)[C@@H](C)O [compound 244] (H-KCNTSTCTVA[Cit]LADQITQFSNKDKAQVSPPTEVGPNS[Hyp]-NH2; disulfide 2-7)	0.006	4.100	> 5000	–	–	–	–
CC[C@H](C)[C@H](NC(=O)[C@H](CCC(N)=O)NC(=O)[C@H](Cc1c[nH]cn1)NC(=O)[C@H](C)NC(=O)[C@H](CC(C)C)NC(=O)[C@H](Cc1c[nH]c2ccccc12)NC(=O)[C@H](CCC(N)=O)NC(=O)[C@@H](NC(=O)[C@@H](NC(=O)[C@@H]1CSSC[C@H](NC(=O)[C@@H](N)CCCCN)C(=O)N[C@@H](CC(N)=O)C(=O)N[C@@H]([C@@H](C)O)C(=O)N[C@@H](C)C(=O)N[C@@H]([C@@H](C)O)C(=O)N1)[C@@H](C)O)C(C)C)C(=O)N[C@@H](Cc1ccc(O)cc1)C(=O)N[C@@H](CCC(N)=O)C(=O)N[C@@H](Cc1ccccc1)C(=O)N[C@H](C(=O)N[C@@H](CC(=O)O)C(=O)N[C@@H](CCCCN)C(=O)N[C@@H](CC(=O)O)C(=O)N[C@@H](CCCCN)C(=O)N[C@@H](CC(=O)O)C(=O)N[C@@H](CC(N)=O)C(=O)N[C@H](C(=O)N[C@@H](C)C(=O)N[C@@H](C)C(=O)N1CCC[C@H]1C(=O)N[C@H](C(=O)N[C@@H](CC(N)=O)C(=O)N[C@H](C(=O)NCC(=O)N[C@@H](CO)C(=O)N[C@@H](CC(N)=O)C(=O)NCC(=O)N1C[C@H](O)C[C@H]1C(N)=O)C(C)C)[C@@H](C)O)C(C)C)[C@@H](C)O [compound 325] (H-KCNTATCTVQWLAHQIYQFTDKDKDNVAAPTNVGSNG[Hyp]-NH2; disulfide 2-7; N-terminus assumed)	0.025	10.100	> 5000	–	–	–	–
CC[C@H](C)[C@H](NC(=O)[C@H](CCC(N)=O)NC(=O)[C@H](CC(=O)O)NC(=O)[C@H](C)NC(=O)[C@H](CC(C)C)NC(=O)[C@H](Cc1c[nH]c2ccccc12)NC(=O)[C@H](C)NC(=O)[C@@H](NC(=O)[C@@H](NC(=O)[C@@H]1CSSC[C@H](NC(=O)[C@@H](N)CCCCN)C(=O)N[C@@H](CC(N)=O)C(=O)N[C@@H]([C@@H](C)O)C(=O)N[C@@H](CO)C(=O)N[C@@H]([C@@H](C)O)C(=O)N1)[C@@H](C)O)C(C)C)C(=O)N[C@H](C(=O)N[C@@H](CCC(N)=O)C(=O)N[C@@H](Cc1ccccc1)C(=O)N[C@@H](CO)C(=O)N[C@@H](CC(N)=O)C(=O)N[C@@H](CCCCN)C(=O)N[C@@H](CC(=O)O)C(=O)N[C@@H](CCCCN)C(=O)N[C@@H](C)C(=O)N[C@@H](CCC(N)=O)C(=O)N[C@H](C(=O)N[C@@H](CO)C(=O)N1CCC[C@H]1C(=O)N1CCC[C@H]1C(=O)N[C@H](C(=O)N[C@@H](CCC(=O)O)C(=O)N[C@H](C(=O)NCC(=O)N1CCC[C@H]1C(=O)N[C@@H](CC(N)=O)C(=O)N[C@@H](CO)C(=O)N1C[C@H](O)C[C@H]1C(N)=O)C(C)C)[C@@H](C)O)C(C)C)[C@@H](C)O [compound 306] (H-KCNTSTCTVAWLADQITQFSNKDKAQVSPPTEVGPNS[Hyp]-NH2; disulfide 2-7; N-terminus assumed)	0.003	3.000	> 5000	–	–	–	–
CC[C@H](C)[C@H](NC(=O)[C@H](CCC(N)=O)NC(=O)[C@H](Cc1c[nH]cn1)NC(=O)[C@H](C)NC(=O)[C@H](CC(C)C)NC(=O)[C@H](CCCNC(N)=O)NC(=O)[C@H](CCC(N)=O)NC(=O)[C@@H](NC(=O)[C@@H](NC(=O)[C@@H]1CSSC[C@H](NC(=O)CN)C(=O)N[C@@H](CCCNC(=N)N)C(=O)N[C@@H](Cc2ccccc2)C(=O)NCC(=O)N[C@@H]([C@@H](C)O)C(=O)N1)[C@@H](C)O)C(C)C)C(=O)N[C@@H](Cc1ccc(O)cc1)C(=O)N[C@@H](CCC(N)=O)C(=O)N[C@@H](Cc1ccccc1)C(=O)N[C@H](C(=O)N[C@@H](CC(=O)O)C(=O)N[C@@H](CCCCN)C(=O)N[C@@H](CC(=O)O)C(=O)N[C@@H](CCCCN)C(=O)N[C@@H](CC(=O)O)C(=O)N[C@@H](CC(N)=O)C(=O)N[C@H](C(=O)N[C@@H](C)C(=O)N1CCC[C@H]1C(=O)N[C@@H](CCCNC(=N)N)C(=O)N[C@@H](CO)C(=O)N[C@@H](CCCCN)C(=O)N[C@H](C(=O)N[C@@H](CO)C(=O)N1CCC[C@H]1C(=O)N[C@@H](CCC(N)=O)C(=O)NCC(=O)N1C[C@H](O)C[C@H]1C(N)=O)C(C)C)C(C)C)[C@@H](C)O [compound 305] (H-GCRFGTCTVQ[Cit]LAHQIYQFTDKDKDNVAPRSKVSPQG[Hyp]-NH2; disulfide 2-7)	0.085	24.600	> 5000	–	–	–	–
CC[C@H](C)[C@H](NC(=O)[C@H](CCC(N)=O)NC(=O)[C@H](Cc1c[nH]cn1)NC(=O)[C@H](C)NC(=O)[C@H](CC(C)C)NC(=O)[C@H](CCCNC(=N)N)NC(=O)[C@H](CCC(N)=O)NC(=O)[C@@H](NC(=O)[C@@H](NC(=O)[C@@H]1CSSC[C@H](NC(=O)CN)C(=O)N[C@@H](CCCNC(=N)N)C(=O)N[C@@H](Cc2ccccc2)C(=O)NCC(=O)N[C@@H]([C@@H](C)O)C(=O)N1)[C@@H](C)O)C(C)C)C(=O)N[C@@H](Cc1ccc(O)cc1)C(=O)N[C@@H](CCC(N)=O)C(=O)N[C@@H](Cc1ccccc1)C(=O)N[C@H](C(=O)N[C@@H](CC(=O)O)C(=O)N[C@@H](CCCCN)C(=O)N[C@@H](CC(=O)O)C(=O)N[C@@H](CCCCN)C(=O)N[C@@H](CC(=O)O)C(=O)N[C@@H](CC(N)=O)C(=O)N[C@H](C(=O)N[C@@H](C)C(=O)N1CCC[C@H]1C(=O)N[C@@H](CCCNC(=N)N)C(=O)N[C@@H](CO)C(=O)N[C@@H](CCCCN)C(=O)N[C@H](C(=O)N[C@@H](CO)C(=O)N1CCC[C@H]1C(=O)N[C@@H](CCC(N)=O)C(=O)NCC(=O)N1C[C@H](O)C[C@H]1C(N)=O)[C@@H](C)CC)C(C)C)[C@@H](C)O [SEQ ID NO: 169, GCRFGTCTVQRLAHQIYQFTDKDKDNVAPRSKISPQG Hyp] (H-GCRFGTCTVQRLAHQIYQFTDKDKDNVAPRSKISPQG[Hyp]-NH2; disulfide 2-7; N-terminus assumed)	–	2.700	–	0.063	approximately 20 fold	2980	approximately 2500 fold

Source: patent US12139520B2 (priority 2020, dated 2024)
